Test results as given in ChEMBL document CHEMBL4138216, “Design, synthesis and structure-activity relationship of a focused library of β-phenylalanine derivatives as novel eEF2K inhibitors with apoptosis-inducing mechanisms in breast cancer” (Eur J Med Chem, 2018).
Active and inactive are the calls of the source. No cut-off for these calls is given here.

Tests used:
Mus musculus [1] = assay: In vivo inhibition of eEF2K phosphorylation in tumor of BALB/c nude mouse xenografted with human MDA-MB-231 cells at 25 to 100 mg/kg, ig qd measured after 24 days by immunohistochemical analysis; format: functional, organism-based
Mus musculus [2] = assay: Toxicity in BALB/c nude mouse xenografted with human MDA-MB-436 cells assessed as effect on liver weight at 25 to 100 mg/kg, ig qd measured after 24 days; format: organism-based; conditions: in vivo, po, 576 h
MDA-MB-231 [3] = assay: Induction of apoptosis in human MDA-MB-231 cells assessed as increase in PARP cleavage after 12 to 36 hrs by Western blot method; format: functional, cell-based
MDA-MB-231 [4] = assay: Induction of apoptosis in human MDA-MB-231 cells assessed as increase in caspase-8 cleavage after 12 to 36 hrs by Western blot method; format: functional, cell-based
MDA-MB-436 = assay: Induction of apoptosis in human MDA-MB-436 cells assessed as increase in caspase-8 cleavage after 12 to 36 hrs by Western blot method; format: functional, cell-based
Mus musculus [5] = assay: Toxicity in BALB/c nude mouse xenografted with human MDA-MB-436 cells assessed as body weight loss at 50 to 100 mg/kg, ig qd measured every 3 days for 24 days during compound dosing; format: organism-based; conditions: in vivo, po, 576 h
MDA-MB-231 [6] = assay: Induction of apoptosis in human MDA-MB-231 cells assessed as formation of apoptotic bodies by phase contrast microscopy; format: functional, cell-based
Mus musculus [7] = assay: Toxicity in BALB/c nude mouse xenografted with human MDA-MB-231 cells assessed as body weight loss at 50 to 100 mg/kg, ig qd measured every 3 days for 24 days during compound dosing; format: organism-based; conditions: in vivo, po, 576 h
MDA-MB-231 [8] = assay: Antiproliferative activity against human MDA-MB-231 cells xenografted in BALB/c nude mouse at 25 to 100 mg/kg, ig qd measured after 24 days by Ki-67 staining-based assay; format: functional, organism-based
Mus musculus [9] = assay: Toxicity in BALB/c nude mouse xenografted with human MDA-MB-231 cells assessed as effect on kidney weight at 25 to 100 mg/kg, ig qd measured after 24 days; format: organism-based; conditions: in vivo, po, 576 h
MDA-MB-231 [10] = assay: Induction of apoptosis in human MDA-MB-231 cells assessed as DNA condensation after 12 to 36 hrs by Hoechst 33258 staining-based fluorescence assay; format: functional, cell-based
MDA-MB-231 [11] = assay: Induction of apoptosis in human MDA-MB-231 cells assessed as loss of mitochondrial membrane potential after 12 to 36 hrs by rhodamine123 staining-based flow cytometric method; format: functional, cell-based

**Q.** N#Cc1ccc(S(=O)(=O)NC(CC(=O)O)c2ccc(Cl)cc2Cl)cc1 (configuration not stated) was tested. Which inhibition (Mus musculus [1]) did it give?
**A.** The inhibition was “Active”.

**Q.** What about the Activity (Mus musculus [2]) of the same molecule?
**A.** Its Activity is “Non-Toxic”.

**Q.** And the Activity (MDA-MB-231 [3])?
**A.** The Activity was “Active”.

**Q.** What about the Activity (MDA-MB-231 [4]) of the same molecule?
**A.** The Activity was “Active”.

**Q.** And the Activity (MDA-MB-436)?
**A.** Its Activity is “Active”.

**Q.** What about the Activity (Mus musculus [5]) of the same molecule?
**A.** The Activity was “Non-Toxic”.

**Q.** What about the Activity (MDA-MB-231 [6]) of the same molecule?
**A.** Its Activity is “Active”.

**Q.** What about the Activity (Mus musculus [7]) of the same molecule?
**A.** The Activity was “Non-Toxic”.

**Q.** And the Activity (MDA-MB-231 [8])?
**A.** Its Activity is “Active”.

**Q.** What about the Activity (Mus musculus [9]) of the same molecule?
**A.** Its Activity is “Non-Toxic”.

**Q.** And the Activity (MDA-MB-231 [10])?
**A.** The Activity was “Active”.

**Q.** And the Activity (MDA-MB-231 [11])?
**A.** Its Activity is “Active”.
